# Data reported in ChEMBL document CHEMBL1201862, “PubChem BioAssay data set” (2004).
#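 96-well plates; 48 h exposure; 5 concentrations. Endpoints by linear interpolation between flanking doses. Not reached: highest tested concentration assigned. GI50 marks 50% less growth.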 Active and inactive are the calls of the source. Rule as the data show it: active = GI50 up to about 1.1 µM and inactive = higher.
# Experiments:
# Assay in all cases: NCI tumour cell line growth inhibition, 48 h
# DLD-1 = system: DLD-1
# DMS-114 = system: DMS-114
# LXFL 529 = system: LXFL 529
# HOP-18 = system: HOP-18
# M19-MEL = system: M19-MEL
# SNB-78 = system: SNB-78
# DMS-273 = system: DMS-273
# XF498 = system: XF498
# RXF 631 = system: RXF 631
SMILES,GI50 (DLD-1),GI50 (DMS-114),GI50 (LXFL 529),GI50 (HOP-18),GI50 (M19-MEL),GI50 (SNB-78),GI50 (DMS-273),GI50 (XF498),GI50 (RXF 631)
c1ccc2cc(C3NCCc4nc[nH]c43)ccc2c1 (stereo not drawn),62.2 µM (inactive),35.6 µM (inactive),54.2 µM (inactive),47 µM (inactive),29.9 µM (inactive),> 100 µM (inactive),69.2 µM (inactive),–,–
COc1ccc(N2C(=O)C3CC(c4ccc(C)cc4)c4c([nH]c5ccccc45)C3C2=O)cc1 (stereo not drawn),38.6 µM (inactive),> 49.7 µM (inactive),28.7 µM (inactive),2.88 µM (inactive),> 75.9 µM (inactive),> 51.4 µM (inactive),24.1 µM (inactive),27.2 µM (inactive),–
NCC(NC(=O)OCc1ccccc1)C(=O)O (stereo not drawn),> 50 µM (inactive),> 50 µM (inactive),> 50 µM (inactive),> 50 µM (inactive),> 50 µM (inactive),> 50 µM (inactive),> 50 µM (inactive),–,–
COc1nc2c(c(O)c(C)c(=O)n2OC2OC(COC(C)=O)C(OC(C)=O)C(OC(C)=O)C2OC(C)=O)c(=O)n1C (stereo not drawn),> 100 µM (inactive),> 100 µM (inactive),> 100 µM (inactive),–,> 100 µM (inactive),> 100 µM (inactive),> 100 µM (inactive),> 100 µM (inactive),> 100 µM (inactive)
Cc1ccccc1N(CCC#N)C1=NN(C(=O)CC(=O)Nc2ccccc2)C(c2ccccc2)C1 (stereo not drawn),> 100 µM (inactive),–,> 100 µM (inactive),> 100 µM (inactive),> 100 µM (inactive),67.9 µM (inactive),> 100 µM (inactive),–,> 100 µM (inactive)
COc1cc(/C=N/N=C(\N)NO)ccc1O,> 100 µM (inactive),39.9 µM (inactive),28.6 µM (inactive),–,–,> 100 µM (inactive),–,–,–
CC(=O)OC1CC2(C)OC(Cc3ccccc32)O1 (stereo not drawn),> 100 µM (inactive),> 100 µM (inactive),–,> 100 µM (inactive),> 100 µM (inactive),> 100 µM (inactive),> 100 µM (inactive),> 100 µM (inactive),–
CN1NC2(CCCCC2)ON=C1c1ccccc1,> 100 µM (inactive),> 100 µM (inactive),–,> 100 µM (inactive),–,> 100 µM (inactive),–,–,–
Cc1ccc(S(=O)(=O)C(CC(NC=O)S(=O)(=O)c2ccc(C)cc2)NC=O)cc1 (stereo not drawn),> 100 µM (inactive),> 100 µM (inactive),> 100 µM (inactive),–,> 100 µM (inactive),> 100 µM (inactive),> 100 µM (inactive),> 100 µM (inactive),> 100 µM (inactive)
Cc1ccc(-c2cc(=O)c3cc(C)c(C)c(C(=O)O)c3o2)cc1,> 100 µM (inactive),> 100 µM (inactive),> 100 µM (inactive),–,> 100 µM (inactive),> 100 µM (inactive),> 100 µM (inactive),> 100 µM (inactive),> 100 µM (inactive)
Cc1cc(=O)n(-c2ccccc2C)c(C)n1,> 100 µM (inactive),> 100 µM (inactive),> 100 µM (inactive),> 100 µM (inactive),> 100 µM (inactive),> 100 µM (inactive),> 100 µM (inactive),–,> 100 µM (inactive)
C=CCNC(=S)NNC(=O)c1c(C)nc2sccn12,> 100 µM (inactive),> 100 µM (inactive),> 100 µM (inactive),> 100 µM (inactive),> 100 µM (inactive),–,> 100 µM (inactive),> 100 µM (inactive),> 100 µM (inactive)
Cc1ccc(/C=C2\CCCC(C(NO)c3ccc(C)cc3)C2=NO)cc1 (stereo not drawn),28 µM (inactive),30.3 µM (inactive),61.7 µM (inactive),11.4 µM (inactive),69.5 µM (inactive),60 µM (inactive),42 µM (inactive),43.7 µM (inactive),27.4 µM (inactive)
CC12CC(Br)(Br)C(=O)C3C1CCCC32,4.63 µM (inactive),6.3 µM (inactive),2.38 µM (inactive),9.89 µM (inactive),8.34 µM (inactive),20 µM (inactive),6.58 µM (inactive),8.73 µM (inactive),–
CCc1ccccc1NC(=O)C1=C(C)NC(C)=C(C(=O)Nc2c(CC)cccc2CC)C1c1ccc2c(c1)OCO2 (stereo not drawn),21.9 µM (inactive),20.2 µM (inactive),17 µM (inactive),–,22.1 µM (inactive),26.9 µM (inactive),–,28.4 µM (inactive),–
N=C(N)NCCCCCCC(=O)NC(O)C(=O)NCCCCNCCCN (stereo not drawn),723 µM (inactive),69.2 µM (inactive),–,710 µM (inactive),719 µM (inactive),> 750 µM (inactive),> 750 µM (inactive),100 µM (inactive),–
N#CCCn1[nH]c(=O)c(Cl)c(Cl)c1=O,10.3 µM (inactive),14.9 µM (inactive),16.9 µM (inactive),16.9 µM (inactive),12 µM (inactive),19.6 µM (inactive),–,16.1 µM (inactive),19.6 µM (inactive)
CCOC(C/N=c1/nc(N(C)C)ss1)OCC,16.4 µM (inactive),18 µM (inactive),0.489 µM (active),> 66.4 µM (inactive),0.504 µM (active),24.6 µM (inactive),23 µM (inactive),15 µM (inactive),18.4 µM (inactive)
CCCCN(CCCC)C(=O)C(=O)C(C)C(=O)CC (stereo not drawn),> 100 µM (inactive),–,> 100 µM (inactive),–,–,> 100 µM (inactive),> 100 µM (inactive),> 100 µM (inactive),–
O=C(c1ccccc1)c1c(CNCc2ccccc2)n(C(=O)c2ccccc2)c2ccccc12,35.4 µM (inactive),21.2 µM (inactive),30.4 µM (inactive),–,92.3 µM (inactive),–,47.1 µM (inactive),> 100 µM (inactive),–
Cc1ccccc1C1OC(=O)c2ccccc21 (stereo not drawn),> 100 µM (inactive),> 100 µM (inactive),> 100 µM (inactive),> 100 µM (inactive),> 100 µM (inactive),> 100 µM (inactive),> 100 µM (inactive),–,> 100 µM (inactive)
CSc1nnc(C(C#N)C#N)nn1,> 100 µM (inactive),> 100 µM (inactive),> 100 µM (inactive),–,> 100 µM (inactive),> 100 µM (inactive),> 100 µM (inactive),> 100 µM (inactive),> 100 µM (inactive)
COc1cc2c(c(OC)c1OC)-c1ccc(SC)c(=O)cc1[C@@H](NCc1ccc([N+](=O)[O-])cc1)CC2,0.00402 µM (active),0.00253 µM (active),0.00635 µM (active),–,0.00379 µM (active),0.00904 µM (active),0.00288 µM (active),0.00899 µM (active),–
CCCCCCCCCCCCCCCC(=O)Nc1ccn(C2OC(CO)C(O)C2O)c(=O)n1 (stereo not drawn),> 54.7 µM (inactive),4.89 µM (inactive),39.5 µM (inactive),21.4 µM (inactive),13.1 µM (inactive),> 100 µM (inactive),5.66 µM (inactive),–,–
C=C(C)[C@@H]1CC[C@]2(C)CC[C@]3(C)[C@H](CC[C@@H]4[C@@]5(C)CC[C@H](O)C(C)(C)[C@@H]5CC[C@]43C)[C@@H]12 [LUPEOL],> 100 µM (inactive),65.8 µM (inactive),> 100 µM (inactive),–,> 100 µM (inactive),–,> 100 µM (inactive),> 100 µM (inactive),–
